# According to publication PMC10388297, “Mixture-Based Screening of Focused Combinatorial Libraries by NMR: Application to the Antiapoptotic Protein hMcl-1” (Journal of Medicinal Chemistry, 2023):
# “And” between values parts separate entries of the source, which are not always exact repeats. Identical values can stand only once. Like-named read-outs stand apart in the source and are kept apart here.
# Experiments:
# Assay type in all cases: binding
# hMcl-1 [1] = target: T1, hMcl-1 (Homo sapiens, UniProt Q07820); test: 1D 1H NMR aliphatic region chemical shift perturbation / titration; settings: for CSP1 (Table S3) / CSP1 (Table S4): total shift of the two peaks overlapping at -0.616 ppm
# T1 construct: His tag (N); made in house; host or cells: E. coli BL21 (DE3) gold pLysS
# T1 sequence (Q07820 172-323): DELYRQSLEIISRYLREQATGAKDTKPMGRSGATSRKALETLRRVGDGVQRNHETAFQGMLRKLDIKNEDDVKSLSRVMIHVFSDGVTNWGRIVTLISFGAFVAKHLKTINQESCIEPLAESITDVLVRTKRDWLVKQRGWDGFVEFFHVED
# From the text: (§1) Perturbations observed by ligand binding can be measured and qualitatively used to roughly rank order compound binding, or compound mixtures in this case, in the initial screening campaign (Figure 2). As a control, we used a potent hMcl-1 binding ligand A1210477[37] (Figure 2A).
# (§2) NMR spectra were acquired on a Bruker Avance III 700 MHz spectrometer equipped with a TCI cryoprobe. All NMR data were processed and analyzed using TopSpin 4.1.0 (Bruker, Billerica, MA). For the mixture screening, each of the 96 mixtures was dissolved into a 5 mm NMR tube to a final concentration of 2 mM in the presence of 20 μM hMcl-1 in a buffer containing 40 mM Tris pH = 7.5, 150 mM NaCl, and 1 mM DTT. For each mixture, 1D ^1H-aliph experiments were acquired. For ranking purposes, a total chemical shift perturbation generated by each mixture to the five peaks around 0 ppm in the 1D ^1H-aliph spectra of hMcl-1 was considered (Figure 4). 2D-[^13C,^1H]-HSQC experiments were acquired with 20 μM protein using 32 scans with 2048 and 256 complex data points in the ^1H and ^13C dimensions, respectively, at 298 K.
# hMcl-1 [2] = target: T1, hMcl-1; test: Isothermal titration calorimetry
# Protocol: Isothermal titration calorimetry measurements were performed using an Affinity ITC autosampler from TA Instruments (New Castle, DE). The titrations were performed in a direct fashion by titrating the ligand solution into the protein. All the measurements were performed at 25 °C dissolving the agents in 50 mM phosphate at pH 7.5, 150 mM NaCl, and a final DMSO concentration of 1%. To test compound 12, the syringe was filled with a 2 mM solution of compound 12, and 20 injections of 5 μL each were performed into the cell containing a 100 μM solution of the protein. The injections were made at 200 s intervals with a stirring speed of 75 rpm. To test compound 50, the syringe was filled with a 500 μM solution of compound 50, and 20 injections of 5 μL each were performed into the cell containing a 50 μM solution of the protein. The injections were made at 200 s intervals with a stirring speed of 75 rpm. All the solutions were kept in the autosampler at 4 °C. The analysis of the thermodynamics signatures and for dissociation constant determination was performed by NanoAnalyze software (TA Instruments, New Castle, DE) and subsequently exported into Microsoft Excel.
# hMcl-1 [3] = target: T1, hMcl-1; test: DELFIA displacement assay, biotinylated BH3 peptide from hMcl-1; settings: for IC50: hMcl-1 16 nM, room temperature
# Protocol: as §1
# (§3) Each well of 96-well streptavidin-coated plates (PerkinElmer) was incubated with 100 μL of a 600 ng/mL biotinylated-BH3 peptide of sequence biotin-amino-hexanoic acid-[…]-NH2 for 2 h and washed 3 times with a wash solution (PerkinElmer). Subsequently, a mixture containing 11 μL of protein and a serial dilution of the test compounds as well as 89 μL of an Eu-N1-labeled anti-6x-His antibody (PerkinElmer) was added to each well and incubated for 2 h. Plates were then washed 3 times, and 200 μL of enhancement solution (PerkinElmer) was added to each well. After a 10 min incubation, fluorescence measurements were taken with a Victor X5 microplate reader with the excitation and emission wavelengths of 340 and 615, respectively. All the incubations were performed at room temperature. The final protein concentrations used for hBfl-1 and hMcl-1 were 15 and 16 nM, respectively and the final anti-6x-His antibody used was 22.2 ng/well. Fluorescence readings were normalized to those of 1% DMSO-treated wells and reported as % inhibition. Prism 9 (GraphPad) was used to calculate IC50 values.
# 13Cε-Met-labeled hMcl-1 = target: T2, 13Cε-Met-labeled hMcl-1 (Homo sapiens, UniProt Q07820); test: 2D [13C,1H] correlation spectra with 13Cε-Met-labeled hMcl-1
# T2 construct: His tag (N); made in house; host or cells: E. coli BL21 (DE3) gold pLysS
# T2 sequence (Q07820 172-323): as above
# From the text: To further corroborate the possible binding location and pose of the agent, we collected NMR experiments with a selectively ^13C^ε-Met-labeled hMcl-1.[1] In the sequence of hMcl-1, there are 4 Met residues, where two located outside the biding pocket, namely, Met 170 and Met 199, while two Met residues are directly present in the BH3 binding pocket, namely, Met 231 and Met 250 (Figure 8). […] Smaller yet still relatively large perturbations were also observed in the resonances of Met 250, located also across the indole in our model but not as directly juxtaposed as Met 231 with our ligand (Figure 8). […] This piece of data supports the location of the binding of our agent and possibly also corroborates its predicted binding pose.
# as §2, with “2D-[^13C,^1H]-HSQC experiments were acquired with 20 μM protein using 32 scans with 2048 and 256 complex data points in the ^1H and ^13C dimensions, respectively, at 298 K.” left out
# hBfl-1 = target: T3, hBfl-1 (Homo sapiens, UniProt Q16548); test: DELFIA displacement assay, hBfl-1; settings: hBfl-1 15 nM
# T3 sequence (Q16548 1-175): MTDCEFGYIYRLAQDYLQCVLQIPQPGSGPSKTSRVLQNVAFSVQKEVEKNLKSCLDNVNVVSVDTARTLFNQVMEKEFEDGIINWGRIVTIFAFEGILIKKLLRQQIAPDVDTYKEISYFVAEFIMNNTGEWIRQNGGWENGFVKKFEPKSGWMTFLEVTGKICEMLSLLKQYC
# Protocol: as §3
# [4] = 25 °C, pH 7.5, 1% DMSO, read-out: Kd by isothermal titration calorimetry
# [5] = supplementary CSV, values match ITC, read-out: Kd (uM) (n=2)
smiles,measurement,setting,value
"COc1cc(C)c(C(C)C)cc1S(=O)(=O)N[C@H](CC(=O)O)C(=O)N[C@@H](CC1CCCCC1)C(N)=O [Compound 12, (R)-4-(((S)-1-Amino-3-cyclohexyl-1-oxopropan-2-yl)amino)-3-((5-isopropyl-2-methoxy-4-methylphenyl)sulfonamido)-4-oxobutanoic Acid]",dissociation constant estimated by NMR titration,"hMcl-1 [1]; 1D 1H NMR, hMcl-1 20 μM",triple-digit micromolar
same,CSP1 (Table S3),hMcl-1 [1]; listed as Compound (12),++ (0.05 ppm < CSP < 0.1 ppm)
same,Kd,hMcl-1 [2]; [4],~450 µM
COc1cc(C)c(C(C)C)cc1S(=O)(=O)N[C@H](CC(=O)O)C(=O)N[C@@H](CC1CCCCC1)C(N)=O [Compound 13],CSP1 (Table S3),hMcl-1 [1]; listed as Compound (13),+ (0.01 ppm < CSP < 0.05 ppm)
COc1cc(C)c(C(C)C)cc1S(=O)(=O)N[C@@H](CCC(=O)O)C(=O)N[C@@H](CC1CCCCC1)C(N)=O [Compound 14],CSP1 (Table S3),hMcl-1 [1],+ (0.01 ppm < CSP < 0.05 ppm)
COc1cc(C)c(C(C)C)cc1S(=O)(=O)N[C@H](CCC(=O)O)C(=O)N[C@@H](CC1CCCCC1)C(N)=O [Compound 15],CSP1 (Table S3),hMcl-1 [1],+ (0.01 ppm < CSP < 0.05 ppm)
"COc1cc(C)c(C(C)C)cc1S(=O)(=O)N[C@H](CC(=O)O)C(=O)N[C@@H](CC1CCCCC1)C(=O)N[C@H](Cc1c[nH]c2ccccc12)C(N)=O [Compound 21, (R)-4-(((S)-1-(((R)-1-Amino-3-(1H-indol-3-yl)-1-oxopropan-2-yl)amino)-3-cyclohexyl-1-oxopropan-2-yl)amino)-3-((5-isopropyl-2-methoxy-4-methylphenyl)sulfonamido)-4-oxobutanoic Acid]","CSP in the 1D-1H-aliphatic region of hMcl-1, comparison among P4 compounds","hMcl-1 [1]; 20 μM hMcl-1, compound 100 μM",bigger CSP
same,Kd,"hMcl-1 [1]; 1D 1H NMR, hMcl-1 20 μM, read-out: dissociation constant estimated by NMR titration",~30000 nM
same,CSP1 (Table S4),hMcl-1 [1],+++ (0.1 ppm < CSP < 0.13 ppm)
"COc1cc(C)c(C(C)C)cc1S(=O)(=O)NC(CC(=O)O)C(=O)N1C(C(=O)NC(Cc2c[nH]c3ccccc23)C(N)=O)CC2CCCCC21 [Compound 50, (3R)-4-((2S)-2-(((S)-1-Amino-3-(1H-indol-3-yl)-1-oxopropan-2-yl)carbamoyl)octahydro-1H-indol-1-yl)-3-((5-isopropyl-2-methoxy-4-methylphenyl)sulfonamido)-4-oxobutanoic Acid]",IC50,"hMcl-1 [3]; read-out: IC50, displacement of biotinylated-BIM peptide from hMcl-1 (DELFIA)",7500 nM
same,CSP2 (Table S4),"hMcl-1 [1]; shift of the peak at -0.08 ppm, 1D-1H-aliphatic spectrum",+ (0.01 ppm < CSP < 0.05 ppm)
same,CSP1 (Table S4),hMcl-1 [1],+++ (0.1 ppm < CSP < 0.13 ppm)
same,"ΔH, isothermal titration calorimetry",hMcl-1 [2]; 25 °C,-10 kcal/mol
same,Kd,hMcl-1 [2]; [4],~2 µM and 1.71 µM
same,LE,hMcl-1 [2]; from ITC Kd,~0.16
same,Kd,hMcl-1 [2]; [5],1.71 ± 0.3 µM
same,koff,"13Cε-Met-labeled hMcl-1; 20 μM 13Cε-Met hMcl-1, read-out: koff, estimated upper limit from Met 231 chemical shift differences (slow exchange)",< 519 s⁻¹
same,dissociation constant corresponding to off-rate,13Cε-Met-labeled hMcl-1; assuming diffusion limited on rate of 10^9 M^–1 s^–1,low micromolar
same,activity against hBfl-1 in DELFIA displacement assay,hBfl-1,inactive
COc1ccc2[nH]cc(CC(NC(=O)C3CC4CCCCC4N3C(=O)C(CC(=O)O)NS(=O)(=O)c3cc(C(C)C)c(C)cc3OC)C(N)=O)c2c1 (stereo not shown) [Compound 59],Kd,hMcl-1 [2]; [4],4.62 ± 0.37 µM
same,Kd,hMcl-1 [2]; [5],4.62 ± 0.4 µM
COc1ccc(C(C)C)cc1S(=O)(=O)NC(CC(=O)O)C(=O)N1C(C(=O)NC(Cc2c[nH]c3ccccc23)C(N)=O)CC2CCCCC21 (stereo not shown) [Compound 60],Kd,hMcl-1 [2]; [4],2.84 ± 0.67 µM
same,Kd,hMcl-1 [2]; [5],2.84 ± 0.7 µM
Cc1nn(C)c(COc2ccc(N3CCN(S(=O)(=O)N(C)C)CC3)cc2)c1-c1cccc2c(CCCOc3cccc4ccccc34)c(C(=O)O)n(CCN3CCOCC3)c12 [Compound A1210477],LE,hMcl-1 [3]; from DELFIA IC50,~0.17
same,IC50,"hMcl-1 [3]; read-out: IC50, displacement of biotinylated BH3 peptide from hMcl-1 (DELFIA)",14 nM
